Source: article PMC11904993, “Humanized Candida and NanoBiT Assays Expedite Discovery of Bdf1 Bromodomain Inhibitors With Antifungal Potential” (Advanced Science, 2025)
Values joined by “and” are separate entries in the source; they are usually repeats but may differ in a detail not shown here. Identical values can stand only once.

Key:
[1] = target: CgBdf1 BD1 (Candida glabrata, UniProt Q6FWV7); assay: HTRF assay, inhibition of H4ac4 peptide binding; design: species or system C. glabrata; settings: for HTRF signal, normalized (Figure 5A data): 240 min
[2] = target: CgBdf1 BD2 (Candida glabrata, UniProt Q6FWV7); assay: biochemical; format: binding, C. glabrata
[3] = target: human Brd4 BD1 (Homo sapiens, UniProt O60885); assay: HTRF assay, inhibition of H4ac4 peptide binding; settings: Brd4 BD1
[4] = system: C. albicans; assay: Growth of reference and clinical strains in liquid media; format: cell-based; settings: for Growth (%): C. albicans
Method: Strains were presented in Table S8 (Supporting Information). Cells from a single colony were diluted in 0.85% NaCl before being counted using a Neubauer chamber. They were diluted to a final concentration of 6500 cells mL^−1 per well for all clinical strains of C. albicans and C. glabrata; 65 000 cells mL^−1 per well for C. auris; 13 500 cells mL^−1 per well for C. parapsilosis; 3375 cells mL^−1 per well for C. krusei and 1687.5 cells mL^−1 per well for C. tropicalis, in a sterile 96‐well plate. Cells were then grown in SC medium with or without chemical compounds at 30 °C with regular shaking. The significance of growth defects was assessed using Holm‐Sidak method by GraphPad Prism 10.

Chain of CgBdf1 BD1 (Q6FWV7 entry or part of it): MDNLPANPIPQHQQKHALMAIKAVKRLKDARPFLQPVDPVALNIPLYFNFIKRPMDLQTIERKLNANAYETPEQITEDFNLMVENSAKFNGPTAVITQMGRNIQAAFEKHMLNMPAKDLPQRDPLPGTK
Chain of CgBdf1 BD2 (Q6FWV7 entry or part of it): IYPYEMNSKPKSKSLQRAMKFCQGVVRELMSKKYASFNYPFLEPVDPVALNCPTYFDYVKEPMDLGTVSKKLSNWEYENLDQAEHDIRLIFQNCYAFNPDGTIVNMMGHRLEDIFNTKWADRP

CC(=O)N1c2ccc(-c3ccc(C(=O)O)cc3)cc2C(Nc2ccc(Cl)cc2)CC1C (stereo not shown) [I-BET726]
HTRF signal, normalized (Figure 5A data) ([1]; 0.00524 µM): 100.65 and 90.91 and 103.41 | activity at 0.01311 µM ([1]; 4 h, CgBD1, 13.11 nM, read-out: HTRF signal, normalized (Figure 5A data)): 104% | activity at 0.03277 µM ([1]; 4 h, CgBD1, 32.77 nM, read-out: HTRF signal, normalized (Figure 5A data)): 101% | activity at 0.08192 µM ([1]; 4 h, CgBD1, 81.92 nM, read-out: HTRF signal, normalized (Figure 5A data)): 100% | activity at 0.2048 µM ([1]; 4 h, CgBD1, 204.8 nM, read-out: HTRF signal, normalized (Figure 5A data)): 95.5% | activity at 0.512 µM ([1]; 4 h, CgBD1, 512 nM, read-out: HTRF signal, normalized (Figure 5A data)): 85.3% | activity at 3.2 µM ([1]; 4 h, CgBD1, 3200 nM, read-out: HTRF signal, normalized (Figure 5A data)): 40.5% | activity at 8 µM ([1]; 4 h, CgBD1, 8000 nM, read-out: HTRF signal, normalized (Figure 5A data)): 10.1% | activity at 0.00524 µM ([1]; 4 h, read-out: HTRF signal, normalized (Figure 5A data)): 103% | HTRF signal, normalized (Figure 5A data) ([1]; CgBD1, 2.10 nM, 0.0021 µM): 106.06 and 99.07 and 83.43 and 98.63 | HTRF signal, normalized (Figure 5A data) ([1]; CgBD1, 13.11 nM, 0.01311 µM): 90.77 and 95.51 and 103.15 | HTRF signal, normalized (Figure 5A data) ([1]; CgBD1, 32.77 nM, 0.03277 µM): 93.49 and 101.00 and 99.77 | HTRF signal, normalized (Figure 5A data) ([1]; CgBD1, 204.8 nM, 0.2048 µM): 107.13 and 88.05 and 91.40 | HTRF signal, normalized (Figure 5A data) ([1]; CgBD1, 512 nM, 0.512 µM): 93.88 and 86.26 and 86.89 | HTRF signal, normalized (Figure 5A data) ([1]; CgBD1, 1280 nM, 1.28 µM): 77.62 and 66.65 and 70.52 | HTRF signal, normalized (Figure 5A data) ([1]; CgBD1, 3200 nM, 3.2 µM): 48.37 and 45.98 and 46.29 | HTRF signal, normalized (Figure 5A data) ([1]; CgBD1, 8000 nM, 8 µM): 13.26 and 14.56 and 18.60 | IC50 ([1]; Fig 5A, four replicates, read-out: IC50 (μM) BD1, C. gla. Bdf1): 2.52 ± 0.14 µM | activity at 0.0021 µM ([2]; 24 h, CgBD2, 2.10 nM, read-out: HTRF signal, normalized (Figure 5A data)): 98.3% | activity at 0.01311 µM ([2]; 24 h, CgBD2, 13.11 nM, read-out: HTRF signal, normalized (Figure 5A data)): 91.8% | activity at 0.03277 µM ([2]; 24 h, CgBD2, 32.77 nM, read-out: HTRF signal, normalized (Figure 5A data)): 80.2% | activity at 0.08192 µM ([2]; 24 h, CgBD2, 81.92 nM, read-out: HTRF signal, normalized (Figure 5A data)): 54.9% | activity at 0.2048 µM ([2]; 24 h, CgBD2, 204.8 nM, read-out: HTRF signal, normalized (Figure 5A data)): 20.4% | activity at 0.512 µM ([2]; 24 h, CgBD2, 512 nM, read-out: HTRF signal, normalized (Figure 5A data)): 9.19% | activity at 1.28 µM ([2]; 24 h, CgBD2, 1280 nM, read-out: HTRF signal, normalized (Figure 5A data)): 5.95% | activity at 0.00524 µM ([2]; 24 h, read-out: HTRF signal, normalized (Figure 5A data)): 93.2% | IC50 ([2]; Fig 5A, four replicates, read-out: IC50 (μM) BD2, C. gla. Bdf1): 0.085 ± 0.012 µM | HTRF signal, normalized (Figure 5A data) ([3]; 0.0537 nM): 104.39 and 100.71 and 99.92 and 101.07 | HTRF signal, normalized (Figure 5A data) ([3]; 0.13 nM): 104.60 and 101.29 and 100.85 and 99.75 | HTRF signal, normalized (Figure 5A data) ([3]; 0.34 nM): 101.49 and 102.55 and 101.26 and 101.01 | HTRF signal, normalized (Figure 5A data) ([3]; 0.84 nM): 100.78 and 99.59 and 99.33 and 97.74 | HTRF signal, normalized (Figure 5A data) ([3]; 2.10 nM): 99.49 and 98.84 and 98.60 | HTRF signal, normalized (Figure 5A data) ([3]; 5.24 nM): 95.52 and 94.38 and 93.54 and 94.69 | HTRF signal, normalized (Figure 5A data) ([3]; 13.11 nM): 83.95 and 83.77 and 84.76 and 83.85 | HTRF signal, normalized (Figure 5A data) ([3]; 32.77 nM): 48.83 and 48.92 and 64.32 and 62.36 | HTRF signal, normalized (Figure 5A data) ([3]; 81.92 nM): 17.12 and 16.89 and 27.28 and 27.02 | HTRF signal, normalized (Figure 5A data) ([3]; 204.8 nM): 4.51 and 4.84 and 6.56 and 8.13 | HTRF signal, normalized (Figure 5A data) ([3]; 512 nM): 0.14 and 0.27 and 0.17 and 0.18 | Growth (%) ([4]; 1.5625 µM, Fig 5C): 81% and 83% and 74% | Growth (%) ([4]; 3.125 µM, Fig 5C): 66% and 63% and 57% | Growth (%) ([4]; 25 µM, Fig 5C): 17% and 23% and 20% | Growth (%) ([4]; 25 µM, Fig 5E): 17% and 23% and 20% | EC50 ([4]; Candida albicans, ATCC90028, Table S5, C. albicans ATCC90028, WT, read-out: EC50 growth inhibition): 4.25 ± 0.47 µM
